# Data taken from patent publication US9375497B2, “[F-18]-labeled L-glutamic acid, [F-18]-labeled L-glutamine, derivatives thereof and use thereof and processes for their preparation” (BAYER SCHERING PHARMA AKTIENGESELLSCHAFT, priority 2006, dated 2016).
# Key:
# [1] = test system: A549 (non-small-cell bronchial carcinoma) cells; assay: Tumor cell uptake in A549 cells; type: cell-based, human; details: 250 kBq/well, compared to [^18F]FDG
# Description: (§1) For the evaluation of the tumor cell uptake of [^18F]glutamic acid, cell uptake experiments were carried out in human A549 (non-small-cell bronchial carcinoma) and HT29 (colonic carcinoma) cells. The tumor cell uptake of the glutamic acid derivatives was compared to
# (§2) [^18F]FDG (gold standard for oncological PET investigations).
# FIG. 2: Comparison of the time-dependent tumor cell uptake of [^18F]-4-glutamic acid [20-35 μM] (on the left) and [F-18]FDG [2 μM] (on the right) in A549 cells. The cells were incubated with 250 kBq/well. For displacement experiments, L-glutamic acid (1 mM) or glucose (5 mM) was used (mean value±standard deviation, n=3).
# [2] = test system: HT29 (colonic carcinoma) cells; assay: Tumor cell uptake in HT29 cells; type: cell-based, human; details: compared to [^18F]FDG
# Description: as §1, §2
# [3] = test system: murine B16F1 melanoma model in C57BI6 mice; assay: Tumor enrichment and tissue distribution, B16F1 melanoma model; details: for Tumor/tissue quotient, Blood / Tumor/tissue quotient, Brain / Tumor/tissue quotient, Fat / Tumor/tissue quotient, Heart / Tumor/tissue quotient, Intestine / Tumor/tissue quotient, Kidney / Tumor/tissue quotient, Liver / Tumor/tissue quotient, Lung / Tumor/tissue quotient, Muscle / Tumor/tissue quotient, Ovary / Tumor/tissue quotient, Skin / Tumor/tissue quotient, Spleen / Tumor/tissue quotient, Stomach / Tumor/tissue quotient, Uterus: single i.v.; for Tissue uptake, Blood / Tissue uptake, Brain / Tissue uptake, Fat / Tissue uptake, Heart / Tissue uptake, Intestine / Tissue uptake, Kidney / Tissue uptake, Liver / Tissue uptake, Lung / Tissue uptake, Muscle / Tissue uptake, Ovary / Tissue uptake, Skin / Tissue uptake, Spleen / Tissue uptake, Stomach / Tissue uptake, Tumor / Tissue uptake, Uterus: single i.v. 370 kBq; for tumor/blood quotient / tumor/blood quotient, factor higher than for [^14C]5-glutamic acid / tumor/liver quotient / tumor/liver quotient, factor higher than for [^14C]5-glutamic acid: B16F1 melanoma model
# Description: For the evaluation of the tumor enrichment and the tissue distribution in experimental animals, [^18F]-4-glutamic acid was tested in a murine F9 teratocarcinoma model in NMRI nude mice and a murine B16F1 melanoma model in C57BI6 mice.
# For this, 1×10^6 cells (F9) or 5×10^5 cells (B16F1) respectively were suspended in 100 μl of phosphate-buffered physiological saline solution and inoculated subcutaneously into the right, rear flank of the corresponding experimental animal species (NMRI for F9 and 057-BI6 for B16F1) (Berndorff et al. Clin. Cancer Res. 2005, 11, 2005). […] [^18F]-4-Glutamic acid (370 kBq, in 100 μl of physiological saline solution) was administered intravenously to the tail vein. After 15; 60 and 120 min in each case, the animals were killed, organ and tumor removed, weighed and measured for radioactive content.
smiles,measurement,setting,value
"NC(CC([18F])C(=O)O)C(=O)O (stereo not drawn) [[^18F]4-glutamic acid, 4-[F-18]fluoroglutamic acid]",tumor cell uptake,[1],surprisingly high uptake
same,tumor cell uptake,[2],surprisingly high uptake
same,"Tumor/tissue quotient, Blood",[3]; 0.25 h (times as Table 3),1.21
same,"Tumor/tissue quotient, Brain",[3]; 0.25 h (times as Table 3),4.89
same,"Tumor/tissue quotient, Fat",[3]; 0.25 h (times as Table 3),3.95
same,"Tumor/tissue quotient, Heart",[3]; 0.25 h (times as Table 3),1.06
same,"Tumor/tissue quotient, Intestine",[3]; 0.25 h (times as Table 3),1.19
same,"Tumor/tissue quotient, Kidney",[3]; 0.25 h (times as Table 3),0.31
same,"Tumor/tissue quotient, Liver",[3]; 0.25 h (times as Table 3),0.93
same,"Tumor/tissue quotient, Lung",[3]; 0.25 h (times as Table 3),0.32
same,"Tumor/tissue quotient, Muscle",[3]; 0.25 h (times as Table 3),1.72
same,"Tumor/tissue quotient, Ovary",[3]; 0.25 h (times as Table 3),1.03
same,"Tumor/tissue quotient, Skin",[3]; 0.25 h (times as Table 3),1.49
same,"Tumor/tissue quotient, Spleen",[3]; 0.25 h (times as Table 3),0.89
same,"Tumor/tissue quotient, Stomach",[3]; 0.25 h (times as Table 3),1.05
same,"Tumor/tissue quotient, Uterus",[3]; 0.25 h (times as Table 3),0.56
same,"Tissue uptake, Blood",[3]; 0.25 h,2.93 % dose/g
same,"Tissue uptake, Brain",[3]; 0.25 h,0.73 % dose/g
same,"Tissue uptake, Fat",[3]; 0.25 h,0.92 % dose/g
same,"Tissue uptake, Heart",[3]; 0.25 h,3.36 % dose/g
same,"Tissue uptake, Intestine",[3]; 0.25 h,3.00 % dose/g
same,"Tissue uptake, Kidney",[3]; 0.25 h,11.35 % dose/g
same,"Tissue uptake, Liver",[3]; 0.25 h,3.81 % dose/g
same,"Tissue uptake, Lung",[3]; 0.25 h,11.10 % dose/g
same,"Tissue uptake, Muscle",[3]; 0.25 h,2.19 % dose/g
same,"Tissue uptake, Ovary",[3]; 0.25 h,3.57 % dose/g
same,"Tissue uptake, Skin",[3]; 0.25 h,2.43 % dose/g
same,"Tissue uptake, Spleen",[3]; 0.25 h,4.07 % dose/g
same,"Tissue uptake, Stomach",[3]; 0.25 h,3.41 % dose/g
same,"Tissue uptake, Tumor",[3]; 0.25 h,3.55 % dose/g
same,"Tissue uptake, Uterus",[3]; 0.25 h,7.17 % dose/g
same,"Tumor/tissue quotient, Blood",[3]; 1.0 h (times as Table 3),5.25
same,"Tumor/tissue quotient, Brain",[3]; 1.0 h (times as Table 3),4.7
same,"Tumor/tissue quotient, Fat",[3]; 1.0 h (times as Table 3),14.16
same,"Tumor/tissue quotient, Heart",[3]; 1.0 h (times as Table 3),3.54
same,"Tumor/tissue quotient, Intestine",[3]; 1.0 h (times as Table 3),1.56
same,"Tumor/tissue quotient, Kidney",[3]; 1.0 h (times as Table 3),1.25
same,"Tumor/tissue quotient, Liver",[3]; 1.0 h (times as Table 3),3.63
same,"Tumor/tissue quotient, Lung",[3]; 1.0 h (times as Table 3),1.51
same,"Tumor/tissue quotient, Muscle",[3]; 1.0 h (times as Table 3),4.3
same,"Tumor/tissue quotient, Ovary",[3]; 1.0 h (times as Table 3),4.38
same,"Tumor/tissue quotient, Skin",[3]; 1.0 h (times as Table 3),5.43
same,"Tumor/tissue quotient, Spleen",[3]; 1.0 h (times as Table 3),2.81
same,"Tumor/tissue quotient, Stomach",[3]; 1.0 h (times as Table 3),4.02
same,"Tumor/tissue quotient, Uterus",[3]; 1.0 h (times as Table 3),3.84
same,"Tissue uptake, Blood",[3]; 1.0 h,0.48 % dose/g
same,"Tissue uptake, Brain",[3]; 1.0 h,0.49 % dose/g
same,"Tissue uptake, Fat",[3]; 1.0 h,0.18 % dose/g
same,"Tissue uptake, Heart",[3]; 1.0 h,0.71 % dose/g
same,"Tissue uptake, Intestine",[3]; 1.0 h,1.28 % dose/g
same,"Tissue uptake, Kidney",[3]; 1.0 h,2.25 % dose/g
same,"Tissue uptake, Liver",[3]; 1.0 h,0.64 % dose/g
same,"Tissue uptake, Lung",[3]; 1.0 h,1.47 % dose/g
same,"Tissue uptake, Muscle",[3]; 1.0 h,0.53 % dose/g
same,"Tissue uptake, Ovary",[3]; 1.0 h,0.58 % dose/g
same,"Tissue uptake, Skin",[3]; 1.0 h,0.48 % dose/g
same,"Tissue uptake, Spleen",[3]; 1.0 h,0.81 % dose/g
same,"Tissue uptake, Stomach",[3]; 1.0 h,0.59 % dose/g
same,"Tissue uptake, Tumor",[3]; 1.0 h,2.14 % dose/g
same,"Tissue uptake, Uterus",[3]; 1.0 h,0.69 % dose/g
same,"Tumor/tissue quotient, Blood",[3]; 2.0 h (times as Table 3),7.93
same,"Tumor/tissue quotient, Brain",[3]; 2.0 h (times as Table 3),3.55
same,"Tumor/tissue quotient, Fat",[3]; 2.0 h (times as Table 3),8.85
same,"Tumor/tissue quotient, Heart",[3]; 2.0 h (times as Table 3),5.06
same,"Tumor/tissue quotient, Intestine",[3]; 2.0 h (times as Table 3),0.87
same,"Tumor/tissue quotient, Kidney",[3]; 2.0 h (times as Table 3),2.22
same,"Tumor/tissue quotient, Liver",[3]; 2.0 h (times as Table 3),4.42
same,"Tumor/tissue quotient, Lung",[3]; 2.0 h (times as Table 3),2.34
same,"Tumor/tissue quotient, Muscle",[3]; 2.0 h (times as Table 3),6.95
same,"Tumor/tissue quotient, Ovary",[3]; 2.0 h (times as Table 3),3.02
same,"Tumor/tissue quotient, Skin",[3]; 2.0 h (times as Table 3),5.94
same,"Tumor/tissue quotient, Spleen",[3]; 2.0 h (times as Table 3),4.03
same,"Tumor/tissue quotient, Stomach",[3]; 2.0 h (times as Table 3),4.24
same,"Tumor/tissue quotient, Uterus",[3]; 2.0 h (times as Table 3),2.59
same,"Tissue uptake, Blood",[3]; 2.0 h,0.16 % dose/g
same,"Tissue uptake, Brain",[3]; 2.0 h,0.36 % dose/g
same,"Tissue uptake, Fat",[3]; 2.0 h,0.16 % dose/g
same,"Tissue uptake, Heart",[3]; 2.0 h,0.28 % dose/g
same,"Tissue uptake, Intestine",[3]; 2.0 h,1.46 % dose/g
same,"Tissue uptake, Kidney",[3]; 2.0 h,0.57 % dose/g
same,"Tissue uptake, Liver",[3]; 2.0 h,0.29 % dose/g
same,"Tissue uptake, Lung",[3]; 2.0 h,0.56 % dose/g
same,"Tissue uptake, Muscle",[3]; 2.0 h,0.24 % dose/g
same,"Tissue uptake, Ovary",[3]; 2.0 h,0.45 % dose/g
same,"Tissue uptake, Skin",[3]; 2.0 h,0.22 % dose/g
same,"Tissue uptake, Spleen",[3]; 2.0 h,0.31 % dose/g
same,"Tissue uptake, Stomach",[3]; 2.0 h,0.30 % dose/g
same,"Tissue uptake, Tumor",[3]; 2.0 h,1.27 % dose/g
same,"Tissue uptake, Uterus",[3]; 2.0 h,0.76 % dose/g
same,tumor/blood quotient,[3]; 1 h p.i.,5.3
same,"tumor/blood quotient, factor higher than for [^14C]5-glutamic acid",[3]; 1 h p.i.,2
same,tumor/liver quotient,[3]; 1 h p.i.,3.6
same,"tumor/liver quotient, factor higher than for [^14C]5-glutamic acid",[3]; 1 h p.i.,4.6
same,tumor/blood quotient,[3]; 2 h p.i.,7.9
same,"tumor/blood quotient, factor higher than for [^14C]5-glutamic acid",[3]; 2 h p.i.,3.5
same,tumor/liver quotient,[3]; 2 h p.i.,4.4
same,"tumor/liver quotient, factor higher than for [^14C]5-glutamic acid",[3]; 2 h p.i.,5.5
same,tumor enrichment,"[3]; B16F1 melanoma, 1 h after intravenous administration",2.14 % ID/g
same,maximal tumor enrichment,"[3]; B16 melanoma, after intravenous injection (15 min)",3.55 % ID/g
